From patent US11667602B2, “Compounds and their use” (AstraZeneca AB, priority 2020, dated 2023)
In brackets after ≈: the same amount, converted by molar mass.

Tests used:
[1] = Rat Hepatocyte Stability (Test E); format: in vitro ADME; conditions: rat, hepatocytes, geometric mean if run multiple times
In short: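 Intrinsic clearance in rat hepatocytes, expressed as μl/min/10^6 cells, following the literature integrated DMPK panel method. Repeat determinations combined as geometric mean.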

human RXFP1 = target: T1, human RXFP1 (Homo sapiens, UniProt Q9HBX9); test: RXFP1 Hu cAMP (Test A); format: cell-based; parameters: expressed in transfected cells; host or cells: Jump-In T-REx CHO-K1 cells (ThermoFisher), induced with 10 ng/ml doxycycline for 24 h; conditions: RXFP1 Hu cAMP; for EC50: read-out: Test A EC50
T1 sequence (Q9HBX9 1-757): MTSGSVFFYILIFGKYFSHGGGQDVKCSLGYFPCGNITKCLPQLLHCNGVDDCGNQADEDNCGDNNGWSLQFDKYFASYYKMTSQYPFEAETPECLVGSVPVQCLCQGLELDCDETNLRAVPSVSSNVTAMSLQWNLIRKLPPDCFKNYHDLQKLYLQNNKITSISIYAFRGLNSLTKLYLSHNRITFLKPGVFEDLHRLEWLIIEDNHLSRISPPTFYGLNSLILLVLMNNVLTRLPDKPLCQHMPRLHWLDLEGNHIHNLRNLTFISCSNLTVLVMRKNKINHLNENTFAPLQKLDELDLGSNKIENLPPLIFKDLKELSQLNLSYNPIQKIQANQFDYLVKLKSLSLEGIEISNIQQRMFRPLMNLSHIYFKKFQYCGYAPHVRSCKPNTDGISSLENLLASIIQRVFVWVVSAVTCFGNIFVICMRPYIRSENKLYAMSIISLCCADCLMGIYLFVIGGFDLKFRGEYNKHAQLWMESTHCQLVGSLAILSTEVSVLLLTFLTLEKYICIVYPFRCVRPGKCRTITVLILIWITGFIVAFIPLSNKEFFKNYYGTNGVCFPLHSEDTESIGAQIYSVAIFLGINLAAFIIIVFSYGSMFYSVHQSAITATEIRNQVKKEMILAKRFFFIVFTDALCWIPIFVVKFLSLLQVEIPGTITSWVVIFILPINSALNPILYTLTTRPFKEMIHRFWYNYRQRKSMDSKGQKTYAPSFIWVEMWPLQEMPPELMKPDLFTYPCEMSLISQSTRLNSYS
In short: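 CHO-K1 (Jump-In T-REx), RXFP1 induced w/ 10 ng/ml doxycycline 24 h, cryopreserved. 0.5 mM IBMX final. cAMP by HTRF, 2 h RT, std curve.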

[2] = Human Plasma Protein Binding (Test B); format: in vitro ADME; conditions: fraction unbound (fu)
In short: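 Values given as % free (fu) in human plasma, using the method of Wernevik et al. (2020). For compounds tested more than once, the arithmetic mean is given.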

[3] = Human Liver Microsomal Stability (Test C); format: in vitro ADME; conditions: human, liver microsomes
In short: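 CLint (μl/min/mg protein) derived from compound depletion in human liver microsomes following a published standardized early-DMPK protocol; replicate determinations given as arithmetic mean.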

Solubility (Test F) = format: physicochemical; conditions: arithmetic mean if run multiple times
Experimental: The assay was conducted according to the Solubility Assay described in pages 164-167 of Wernevik, J. et al., “A Fully Integrated Assay Panel for Early Drug Metabolism and Pharmacokinetics Profiling”, Assay and Drug Development Technologies, 2020, 18(4), 157-179. Data are reported in Table 36 as solubility ([…]. Where the assay was run multiple times for the same compound, the arithmetic mean is reported.

Row | hepatocyte CLint [1] [µL/min/1e6 cells] | Test A Sinf (human RXFP1) [%] | EC50 (human RXFP1) [nM] | Test B Human Plasma Protein Binding (% free) [2] [% free] | microsomal CLint [3] [µL/min/mg] | solubility (Solubility (Test F)) [µM] | SMILES
1 | 19 | 102 | 740 | 44 | < 3 | 950 (≈ 556 µg/mL) | COc1cc(C#N)c(O[C@H]2CC[C@@](C)(C(=O)O)CC2)cc1C(=O)N[C@@H]1[C@H]2CC[C@H](C2)[C@@H]1C(=O)NCC1(F)CCOCC1 [Example 110]
2 | > 300 | 88 | 130 | 0.40 | 29 | 990 (≈ 622 µg/mL) | COc1cc(F)c(O[C@H]2CC[C@@H](C(=O)O)CC2)cc1C(=O)N[C@@H]1[C@H]2CC[C@H](C2)[C@@H]1C(=O)Nc1ccc(C#N)c(Br)c1 [Example 27, (1S,4s)-4-(5-(((1S,2R,3S,4R)-3-((3-Bromo-4-cyanophenyl)carbamoyl)bicyclo[2.2.1]heptan-2-yl)carbamoyl)-2-fluoro-4-methoxyphenoxy)cyclohexane-1-carboxylic acid]
3 | 26 | 124 | 33 | 4.4 | 40 | 610 (≈ 338 µg/mL) | CCC(CC)CNC(=O)[C@H]1[C@@H]2CC[C@@H](C2)[C@H]1NC(=O)c1cc(O[C@H]2CC[C@@](C)(C(=O)O)CC2)c(C#N)cc1OC [Example 88]
4 | 26 | 115 | 20 | 4.1 | 64 | 540 (≈ 305 µg/mL) | CCC1(CNC(=O)[C@H]2[C@@H]3CC[C@@H](C3)[C@H]2NC(=O)c2cc(O[C@H]3CC[C@@](C)(C(=O)O)CC3)c(C#N)cc2OC)CCC1 [Example 86]
5 | 21 | 123 | 480 | 18 | 4.4 | 880 (≈ 489 µg/mL) | COc1cc(C#N)c(O[C@H]2CC[C@@](C)(C(=O)O)CC2)cc1C(=O)N[C@@H]1[C@H]2CC[C@H](C2)[C@@H]1C(=O)NCC1(CF)CC1 [Example 95]
6 | 14 | 75 | > 3100 | 40 | < 3 | 950 (≈ 508 µg/mL) | COc1cc(C#N)c(O[C@H]2CC[C@@](C)(C(=O)O)CC2)cc1C(=O)N[C@@H]1[C@H]2CC[C@H](C2)[C@@H]1C(=O)NC1(C#N)CC1 [Example 72]
7 | 31 |  | > 5000 | 28 | 7.5 | 980 (≈ 556 µg/mL) | COCC1(CNC(=O)[C@H]2[C@@H]3CC[C@@H](C3)[C@H]2NC(=O)c2cc(O[C@H]3CC[C@@](C)(C(=O)O)CC3)c(C#N)cc2OC)CC1 [Example 79]

The remaining lines, values behind:

Row | SMILES | hepatocyte CLint [1] [µL/min/1e6 cells] | Test A Sinf (human RXFP1) [%] | EC50 (human RXFP1) [nM] | Test B Human Plasma Protein Binding (% free) [2] [% free] | microsomal CLint [3] [µL/min/mg] | solubility (Solubility (Test F)) [µM]
8 | COc1cc(F)c(-c2ccc(OCC(=O)O)cc2)cc1C(=O)N[C@@H]1[C@H]2CC[C@H](C2)[C@@H]1C(=O)Nc1cccc(S(=O)(=O)C(F)(F)F)c1 [Example 257, 2-((2′-Fluoro-4′-methoxy-5′-(((1S,2R,3S,4R)-3-((3-((trifluoromethyl)sulfonyl)phenyl)carbamoyl)bicyclo[2.2.1]heptan-2-yl)carbamoyl)-[1,1′-biphenyl]-4-yl)oxy)acetic acid] | 9.5 | 96 | 59 | 0.35 | 16 | > 1000
9 | COc1cc(F)c(-c2ccc(C(=O)O)cc2)cc1C(=O)N[C@@H]1[C@H]2CC[C@H](C2)[C@@H]1C(=O)Nc1ccc(S(F)(F)(F)(F)F)cc1 [Example 210, 2′-Fluoro-4′-methoxy-5′-(((1S,2R,3S,4R)-3-((4-(pentafluoro-λ^6-sulfaneyl)phenyl)carbamoyl)bicyclo[2.2.1]heptan-2-yl)carbamoyl)-[1,1′-biphenyl]-4-carboxylic acid] | 10 | 50 | > 3600 | 0.049 | < 3 | 67 (≈ 42.1 µg/mL)
10 | COc1cc(F)c(O[C@H]2CC[C@@](C)(C(=O)O)CC2)cc1C(=O)Nc1c(C)cccc1C(=O)NCC1(C)CCC1 [Example 156, (1s,4s)-4-(2-Fluoro-4-methoxy-5-((2-methyl-6-(((1-methylcyclobutyl)methyl)carbamoyl)phenyl)carbamoyl)phenoxy)-1-methylcyclohexane-1-carboxylic acid] | 22 | 97 |  | 3.2 | 4.3 | 770 (≈ 416 µg/mL)
11 | COc1cc(F)c(O[C@H]2CC[C@@H](C(=O)O)CC2)cc1C(=O)N[C@@H]1[C@H]2CC[C@H](C2)[C@@H]1C(=O)Nc1cc(F)cc(S(F)(F)(F)(F)F)c1 [Example 17, (1S,4s)-4-(2-Fluoro-5-(((1S,2R,3S,4R)-3-((3-fluoro-5-(pentafluoro-6-sulfaneyl)phenyl)carbamoyl)bicyclo[2.2.1]heptan-2-yl)carbamoyl)-4-methoxyphenoxy)cyclohexane-1-carboxylic acid] | 11 | 110 | 48 | <0.21 | 20 | 150 (≈ 100 µg/mL)
12 | COc1cc(F)c(O[C@H]2CC[C@@H](C(=O)O)CC2)cc1C(=O)N[C@@H]1[C@H]2CC[C@H](C2)[C@@H]1C(=O)Nc1cc(C)cc(C(F)(F)F)c1 [Example 188] | 38 | 103 | 270 | 0.64 | 36 | 290 (≈ 176 µg/mL)
13 | COc1cc(F)c(O[C@H]2CC[C@@](C)(C(=O)O)CC2)cc1C(=O)N[C@@H]1COC[C@@H]1C(=O)Nc1ccc(F)c(C(F)(F)F)c1 [Example 52, (1R,4s)-4-(2-fluoro-5-(((3S,4R)-4-((4-fluoro-3-(trifluoromethyl)phenyl)carbamoyl)tetrahydrofuran-3-yl)carbamoyl)-4-methoxyphenoxy)-1-methylcyclohexane-1-carboxylic acid] | 34 | 108 |  | 0.94 | 13 | 890 (≈ 534 µg/mL)
14 | COc1cc(F)c(-c2ccc(OC(C)(C)C(=O)O)cc2)cc1C(=O)N[C@@H]1[C@H]2CC[C@H](C2)[C@@H]1C(=O)Nc1cccc(S(=O)(=O)C(F)(F)F)c1 [Example 256, 2-((2′-fluoro-4′-methoxy-5′-(((1S,2R,3S,4R)-3-((3-((trifluoromethyl)sulfonyl)phenyl)carbamoyl)bicyclo[2.2.1]heptan-2-yl)carbamoyl)-[1,1′-biphenyl]-4-yl)oxy)-2-methylpropanoic acid] | 12 | 99 | 250 | 0.050 | 8.1 | < 7
15 | COc1cc(Br)c(O[C@H]2CC[C@@H](C(=O)O)CC2)cc1C(=O)N[C@@H]1[C@H]2CC[C@H](C2)[C@@H]1C(=O)Nc1cccc(S(=O)(=O)C(F)(F)F)c1 [Example 464, (1S,4s)-4-(2-Bromo-4-methoxy-5-(((1S,2R,3S,4R)-3-((3-((trifluoromethyl)sulfonyl)phenyl)carbamoyl)bicyclo[2.2.1]heptan-2-yl)carbamoyl)phenoxy)cyclohexane-1-carboxylic acid] | 30 | 104 | 64 | 0.54 | 57 | 200 (≈ 144 µg/mL)
